Experiments:
SK-MEL-5 = assay: NCI human tumor cell line screen, Melanoma SK-MEL-5; type: cell-based; conditions: minipanel comparison, column F (key not visible; values match SK-MEL-5)
Description: (§1) Current research in the control of cancer in the United States is coordinated by the National Cancer Institute (NCI). To determine whether a substance has anti-cancer properties, the NCI has established a systematic protocol. […] The protocol, and the established statistical means for analyzing the results obtained by the standardized testing are fully described in the literature. […] Both of these references are incorporated herein by this reference thereto.

M5076 Ovary Sarcoma = assay: Murine in vivo system, M5076 Ovary Sarcoma
A498 = assay: NCI human tumor cell line screen, Renal A498; type: cell-based; conditions: minipanel comparison, column C (key not visible; values match A498)
Description: as §1

Human Mammary Xenograph = assay: Human Mammary Xenograph, Nude Mouse; type: in vivo; conditions: 26 μg/kg
SF-295 = assay: NCI human tumor cell line screen, CNS SF-295; type: cell-based; conditions: minipanel comparison, column B (key not visible; values match SF-295)
Description: as §1

[1] = tested on: LOX Human Melanoma Xenograph; assay: LOX Human Melanoma Xenograph (Nude Mouse); type: in vivo
[2] = tested on: MX-1 Human Mammary Xenograft; assay: MX-1 Human Mammary Xenograft (Tumor Regression); type: in vivo, Murine
B16 Melanoma = assay: Murine in vivo system, B16 Melanoma
KM20L2 = assay: NCI human tumor cell line screen, Colon KM20L2; type: cell-based; conditions: minipanel comparison
Description: as §1

NCI-H460 = assay: NCI human tumor cell line screen, Lung-NSC NCI-H460; type: cell-based; conditions: minipanel comparison, column D (key not visible; values match NCI-H460)
Description: as §1

[3] = tested on: L1210 Lymphocytic Leukemia; assay: Murine in vivo system, L1210 Lymphocytic Leukemia
[4] = tested on: P388 Lymphocytic Leukemia; assay: Murine in vivo system, P388 Lymphocytic Leukemia
[5] = tested on: OVCAR-3 Human Ovary Xenograph; assay: OVCAR-3 Human Ovary Xenograph, Nude Mouse; type: in vivo; conditions: OVCAR-3 xenograph, 40 μg/kg
OVCAR-3 = assay: NCI human tumor cell line screen, Ovarian OVCAR-3; type: cell-based; conditions: minipanel comparison, column A (key not visible; values match OVCAR-3)
Description: as §1

[6] = LOX in separate experiments, 9.0 μg/kg
[7] = LOX in separate experiments, 26 μg/kg
[8] = LOX in separate experiments, 43 μg/kg

Dolastatin 10
GI50, minipanel cell line F (SK-MEL-5): 0.0074 ng/mL
T/C (M5076 Ovary Sarcoma; M5076, 3.25 μg/kg): 151
T/C (M5076 Ovary Sarcoma; M5076, 6.5 μg/kg): 142
T/C (M5076 Ovary Sarcoma; M5076, 13 μg/kg): 166
T/C (M5076 Ovary Sarcoma; M5076, 26 μg/kg): toxic
GI50, minipanel cell line C (A498): 0.026 ng/mL
T/C (Human Mammary Xenograph): Toxic
GI50, minipanel cell line B (SF-295): 7.6e-05 ng/mL
T/C [1, 6]: 138
cures [1, 6]: 17%
T/C ([1]; LOX in separate experiments, 15 μg/kg): 192
T/C [1, 7]: 181
cures [1, 7]: 33%
T/C [1, 8]: 340
cures [1, 8]: 50%
T/C ([1]; LOX, 3.25 μg/kg): 170
cures ([1]; LOX, 3.25 μg/kg): 17%
cures ([1]; LOX, 6.5 μg/kg): 33%
cures ([1]; LOX, 13 μg/kg): 50%
cures ([1]; LOX, 26 μg/kg): 67%
T/C ([1]; LOX, 52 μg/kg): toxic
T/C (Tumor Regression) ([2]; MX-1, 6.25 μg/kg): 69
T/C (Tumor Regression) ([2]; MX-1, 13 μg/kg): 61
T/C (Tumor Regression) ([2]; MX-1, 26 μg/kg): 50
T/C (Tumor Regression) ([2]; MX-1, 52 μg/kg): 14
T/C (B16 Melanoma; B16, 1.44 μg/kg): 142
T/C (B16 Melanoma; B16, 3.4 μg/kg): 171
T/C (B16 Melanoma; B16, 4.0 μg/kg): 205
T/C (B16 Melanoma; B16, 6.67 μg/kg): 182
T/C (B16 Melanoma; B16, 11.11 μg/kg): 238
cures (B16 Melanoma; B16, 11.11 μg/kg): 40%
GI50, minipanel cell line E (KM20L2): 0.0047 ng/mL
GI50, minipanel cell line D (NCI-H460): 0.0034 ng/mL
T/C ([3]; L1210, 1.63 μg/kg): 120
T/C ([3]; L1210, 3.25 μg/kg): 139
T/C ([3]; L1210, 6.5 μg/kg): 135
T/C ([3]; L1210, 13 μg/kg): 152
cures ([4]; P388, 3.25 μg/kg): 17%
cures ([4]; P388, 6.5 μg/kg): 17%
T/C ([4]; P388, 13.0 μg/kg): toxic
T/C [5]: 300
GI50, minipanel cell line A (OVCAR-3): 0.00095 ng/mL

Source: patent publication US5410024A, “Human cancer inhibitory pentapeptide amides” (Arizona Board of Regents acting on behalf of Arizona State …, priority 1993, dated 1995)
